This is an account of results in patent US20180243211A1, “A PHARMACEUTICAL COMPOSITION FOR REDUCING LOCAL FAT AND USES THEREOF” (Caliway Biopharmaceuticals Co., Ltd., priority 2015, published 2018).

The test system of the first experiment is mature adipocytes (differentiated 3T3-L1 cells). Briefly: Experiment 9-2: apoptosis of mature adipocytes (annexin V/PI flow cytometry), resveratrol with lipophilic drugs. To be noted: 50 ppm total drug (complexes 20 ppm resveratrol + 30 ppm second drug), 24 hours; DMSO control 4.9±2.5%. Format: cell-based. On the procedure:
A DMSO control group cell culture medium, a resveratrol cell culture medium, a puerarin cell culture medium, a quercetin cell culture medium, a resveratrol-puerarin complex cell culture medium, and a resveratrol-quercetin complex cell culture medium were prepared as follows: The DMSO control group cell culture medium: DMSO was mixed with an appropriate amount of sterile water to obtain a 0.5% DMSO solution. The 0.5% DMSO solution was mixed with a cell culture medium (product name: Dulbecco's Modified Eagle Medium, purchased from Gibco) to prepare the DMSO control group cell culture medium, wherein, the volume ratio between the 0.5% DMSO solution and the cell culture medium is 1:1000. The resveratrol cell culture medium: resveratrol was mixed with an appropriate amount of 0.5% DMSO solution to obtain a resveratrol solution. The resveratrol solution was mixed with a cell culture medium (product name: Dulbecco's Modified Eagle Medium, purchased from Gibco) to prepare the resveratrol cell culture medium containing 50 ppm of resveratrol, wherein, the volume ratio between the resveratrol solution and the cell culture medium is 1:1000. The puerarin cell culture medium: puerarin (purchased from Sigma-Aldrich) was mixed with an appropriate amount of 0.5% DMSO solution to obtain a puerarin solution. The puerarin solution was mixed with a cell culture medium to prepare the puerarin cell culture medium containing 50 ppm of puerarin, wherein, the volume ratio between the puerarin solution and the cell culture medium is 1:1000. The quercetin cell culture medium: quercetin (purchased from Sigma-Aldrich) was mixed with an appropriate amount of 0.5% DMSO solution to obtain a quercetin solution. […] Annexin V protein (purchased from eBioscience) and propidium iodide (PI; purchased from eBioscience) were mixed with the cells in each group for a period of time, and then the percentage of cells labeled by annexin V protein and PI in each group was analyzed by flow cytometry to assess the percentage of mature adipocytes undergoing apoptosis. […]
For orientation: In flow cytometry, cells or beads pass a laser one at a time.
With `O=c1c(-c2ccc(O)cc2)coc2c([C@@H]3O[C@H](CO)[C@@H](O)[C@H](O)[C@H]3O)c(O)ccc12` [puerarin], the “percentage of apoptotic cells” value was found to be 7.2±3.7%.
For the compound `O=c1c(O)c(-c2ccc(O)c(O)c2)oc2cc(O)cc(O)c12` [quercetin], the “percentage of apoptotic cells” value is reported as 5.9±2.6%.
Same read-out and setting: under `Oc1ccc(C=Cc2cc(O)cc(O)c2)cc1` [resveratrol] stands 19.1±1.1%.

A further experiment shares this test system. Briefly: Experiment 10-2: apoptosis of mature adipocytes (annexin V/PI flow cytometry), resveratrol with hydrophilic drugs. The class given is cell-based. The note with it: 50 ppm total drug (complexes 20 ppm resveratrol + 30 ppm second drug), 24 hours; sterile water control 9.6±1.5%. On the procedure: A sterile water control group cell culture medium, a resveratrol cell culture medium, a caffeine cell culture medium, a L-carnitine cell culture medium, a resveratrol-caffeine complex cell culture medium, and a resveratrol-L-carnitine complex cell culture medium were prepared as follows: The sterile water control group cell culture medium: Sterile water was mixed with a cell culture medium to prepare the sterile water control group cell culture medium, wherein, the volume ratio between the sterile water and the cell culture medium is 1:1000. The resveratrol cell culture medium: it is the same method as the preparation of the resveratrol cell culture medium in Experiment 9-2. The caffeine cell culture medium: caffeine (purchased from Sigma-Aldrich) was mixed with an appropriate amount of sterile water to obtain a caffeine solution. The caffeine solution was mixed with a cell culture medium to prepare the caffeine cell culture medium containing 50 ppm of caffeine, wherein, the volume ratio between the caffeine solution and the cell culture medium is 1:1000. The L-carnitine cell culture medium: L-carnitine (purchased from Sigma-Aldrich) was mixed with an appropriate amount of sterile water to obtain a L-carnitine solution. The L-carnitine solution was mixed with a cell culture medium to prepare the L-carnitine cell culture medium containing 50 ppm of L-carnitine, wherein, the volume ratio between the L-carnitine solution and the cell culture medium is 1:1000. The resveratrol-caffeine complex cell culture medium: resveratrol, caffeine, and an appropriate amount of sterile water were mixed to obtain a resveratrol-caffeine complex solution. […] Annexin V protein (purchased from eBioscience) and propidium iodide (PI; purchased from eBioscience) were mixed with the cells in each group for a period of time, and then the percentage of cells labeled by annexin V protein and PI in each group was analyzed by flow cytometry to assess the percentage of mature adipocytes undergoing apoptosis.
As to `C[N+](C)(C)C[C@H](O)CC(=O)[O-]` [L-carnitine], the “percentage of apoptotic cells” value is 5.2±1.2%.
On the same count and under the same terms, under `Cn1c(=O)c2c(ncn2C)n(C)c1=O` [caffeine] stands 6.9±1.1%; under `Oc1ccc(C=Cc2cc(O)cc(O)c2)cc1` [resveratrol], 19.0±1.1%.
